Measured values: paper PMC4457528, “Identification of Novel Small Molecule Inhibitors of Oncogenic RET Kinase” (PLoS ONE, 2015)
Read-outs that look alike come from different tables or passages of the source.

Key:
Test in all cases: KinomeScan kinase panel, single concentration 10 µM
Assay type in all cases: binding
[1] = molecular target: T1, KinomeScan kinase panel (Homo sapiens, UniProt O14920); details: IKK-beta, 10 µM; read-out: score (%)
T1 construct: purchased DiscoveRx (KinomeScan)
T1 sequence (O14920 1-756): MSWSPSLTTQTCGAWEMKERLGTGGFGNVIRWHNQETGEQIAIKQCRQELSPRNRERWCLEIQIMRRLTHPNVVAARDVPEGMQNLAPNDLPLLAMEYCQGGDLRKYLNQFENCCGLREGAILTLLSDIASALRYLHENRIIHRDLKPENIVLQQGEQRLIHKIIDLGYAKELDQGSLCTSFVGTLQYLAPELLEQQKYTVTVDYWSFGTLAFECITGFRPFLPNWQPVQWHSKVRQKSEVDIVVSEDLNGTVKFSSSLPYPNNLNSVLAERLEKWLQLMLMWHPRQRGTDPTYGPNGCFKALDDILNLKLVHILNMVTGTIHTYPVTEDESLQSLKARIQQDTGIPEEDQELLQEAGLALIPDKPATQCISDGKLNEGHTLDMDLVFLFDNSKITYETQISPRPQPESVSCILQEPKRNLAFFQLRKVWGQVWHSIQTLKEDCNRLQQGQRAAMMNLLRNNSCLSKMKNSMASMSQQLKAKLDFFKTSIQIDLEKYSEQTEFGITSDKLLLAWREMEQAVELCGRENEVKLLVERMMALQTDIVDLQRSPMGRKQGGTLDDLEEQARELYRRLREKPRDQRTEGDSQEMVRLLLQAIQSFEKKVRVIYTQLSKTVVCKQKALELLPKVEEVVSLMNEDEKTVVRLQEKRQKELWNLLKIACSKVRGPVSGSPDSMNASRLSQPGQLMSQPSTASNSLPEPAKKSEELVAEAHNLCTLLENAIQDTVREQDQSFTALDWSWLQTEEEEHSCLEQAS

[2] = molecular target: T2, KinomeScan kinase panel (Homo sapiens, UniProt Q9BYT3); details: read-out: score (%)
T2 construct: purchased DiscoveRx (KinomeScan)

[3] = molecular target: T3, KinomeScan kinase panel (Homo sapiens, UniProt P29597)
T3 construct: purchased DiscoveRx (KinomeScan)

[4] = molecular target: T4, KinomeScan kinase panel (Homo sapiens, UniProt Q13873); details: BMPR2, 10 µM
T4 construct: purchased DiscoveRx (KinomeScan)
T4 sequence (Q13873 27-1038): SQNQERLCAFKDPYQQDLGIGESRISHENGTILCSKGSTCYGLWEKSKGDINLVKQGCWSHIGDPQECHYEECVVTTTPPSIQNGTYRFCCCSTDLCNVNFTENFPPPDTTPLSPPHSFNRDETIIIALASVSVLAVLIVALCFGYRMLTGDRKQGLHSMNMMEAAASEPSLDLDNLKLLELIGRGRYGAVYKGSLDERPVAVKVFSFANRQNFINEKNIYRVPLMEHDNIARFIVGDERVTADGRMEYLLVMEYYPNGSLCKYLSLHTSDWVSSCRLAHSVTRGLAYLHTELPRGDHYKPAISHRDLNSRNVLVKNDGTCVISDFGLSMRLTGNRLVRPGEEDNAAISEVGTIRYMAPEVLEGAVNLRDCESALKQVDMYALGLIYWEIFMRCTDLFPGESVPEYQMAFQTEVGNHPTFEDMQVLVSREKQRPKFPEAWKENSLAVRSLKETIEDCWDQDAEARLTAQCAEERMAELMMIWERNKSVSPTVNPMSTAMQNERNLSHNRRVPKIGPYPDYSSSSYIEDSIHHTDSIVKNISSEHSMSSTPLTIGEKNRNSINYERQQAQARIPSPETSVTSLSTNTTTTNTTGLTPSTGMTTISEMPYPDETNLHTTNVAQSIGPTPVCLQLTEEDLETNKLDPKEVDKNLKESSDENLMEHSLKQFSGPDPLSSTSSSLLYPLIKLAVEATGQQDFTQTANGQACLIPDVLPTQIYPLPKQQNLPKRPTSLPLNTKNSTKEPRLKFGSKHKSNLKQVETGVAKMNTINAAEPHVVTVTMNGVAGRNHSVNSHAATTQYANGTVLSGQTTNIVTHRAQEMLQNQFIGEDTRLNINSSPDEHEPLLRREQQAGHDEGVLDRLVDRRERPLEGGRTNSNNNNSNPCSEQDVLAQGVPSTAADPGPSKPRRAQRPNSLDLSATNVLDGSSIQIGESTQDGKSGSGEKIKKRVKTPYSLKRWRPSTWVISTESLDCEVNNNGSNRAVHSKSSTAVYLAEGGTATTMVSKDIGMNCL

[5] = molecular target: T5, KinomeScan kinase panel (Homo sapiens, UniProt Q14164); details: IKK-epsilon, 10 µM; read-out: score (%)
T5 construct: purchased DiscoveRx (KinomeScan)
T5 sequence (Q14164 1-716): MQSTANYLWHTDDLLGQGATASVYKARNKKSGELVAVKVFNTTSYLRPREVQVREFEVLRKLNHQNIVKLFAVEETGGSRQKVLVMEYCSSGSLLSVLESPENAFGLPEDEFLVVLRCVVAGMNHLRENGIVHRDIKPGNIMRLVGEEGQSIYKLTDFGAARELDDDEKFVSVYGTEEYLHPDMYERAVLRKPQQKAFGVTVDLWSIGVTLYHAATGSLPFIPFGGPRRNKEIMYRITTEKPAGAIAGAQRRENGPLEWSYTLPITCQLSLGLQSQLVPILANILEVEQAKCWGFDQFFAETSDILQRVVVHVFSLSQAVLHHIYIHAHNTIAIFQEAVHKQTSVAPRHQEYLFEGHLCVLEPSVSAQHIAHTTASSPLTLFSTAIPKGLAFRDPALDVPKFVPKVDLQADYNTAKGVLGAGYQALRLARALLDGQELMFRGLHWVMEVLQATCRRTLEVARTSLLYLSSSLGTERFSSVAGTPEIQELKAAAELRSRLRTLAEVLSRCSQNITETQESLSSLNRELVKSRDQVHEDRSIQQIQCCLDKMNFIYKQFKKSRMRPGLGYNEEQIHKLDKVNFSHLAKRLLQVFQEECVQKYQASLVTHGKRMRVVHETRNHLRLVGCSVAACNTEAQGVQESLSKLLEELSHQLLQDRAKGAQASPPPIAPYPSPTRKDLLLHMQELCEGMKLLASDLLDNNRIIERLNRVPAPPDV

[6] = kinase TYK2(JH1domain-catalytic), 10 µM

T3 sequence (P29597 whole entry): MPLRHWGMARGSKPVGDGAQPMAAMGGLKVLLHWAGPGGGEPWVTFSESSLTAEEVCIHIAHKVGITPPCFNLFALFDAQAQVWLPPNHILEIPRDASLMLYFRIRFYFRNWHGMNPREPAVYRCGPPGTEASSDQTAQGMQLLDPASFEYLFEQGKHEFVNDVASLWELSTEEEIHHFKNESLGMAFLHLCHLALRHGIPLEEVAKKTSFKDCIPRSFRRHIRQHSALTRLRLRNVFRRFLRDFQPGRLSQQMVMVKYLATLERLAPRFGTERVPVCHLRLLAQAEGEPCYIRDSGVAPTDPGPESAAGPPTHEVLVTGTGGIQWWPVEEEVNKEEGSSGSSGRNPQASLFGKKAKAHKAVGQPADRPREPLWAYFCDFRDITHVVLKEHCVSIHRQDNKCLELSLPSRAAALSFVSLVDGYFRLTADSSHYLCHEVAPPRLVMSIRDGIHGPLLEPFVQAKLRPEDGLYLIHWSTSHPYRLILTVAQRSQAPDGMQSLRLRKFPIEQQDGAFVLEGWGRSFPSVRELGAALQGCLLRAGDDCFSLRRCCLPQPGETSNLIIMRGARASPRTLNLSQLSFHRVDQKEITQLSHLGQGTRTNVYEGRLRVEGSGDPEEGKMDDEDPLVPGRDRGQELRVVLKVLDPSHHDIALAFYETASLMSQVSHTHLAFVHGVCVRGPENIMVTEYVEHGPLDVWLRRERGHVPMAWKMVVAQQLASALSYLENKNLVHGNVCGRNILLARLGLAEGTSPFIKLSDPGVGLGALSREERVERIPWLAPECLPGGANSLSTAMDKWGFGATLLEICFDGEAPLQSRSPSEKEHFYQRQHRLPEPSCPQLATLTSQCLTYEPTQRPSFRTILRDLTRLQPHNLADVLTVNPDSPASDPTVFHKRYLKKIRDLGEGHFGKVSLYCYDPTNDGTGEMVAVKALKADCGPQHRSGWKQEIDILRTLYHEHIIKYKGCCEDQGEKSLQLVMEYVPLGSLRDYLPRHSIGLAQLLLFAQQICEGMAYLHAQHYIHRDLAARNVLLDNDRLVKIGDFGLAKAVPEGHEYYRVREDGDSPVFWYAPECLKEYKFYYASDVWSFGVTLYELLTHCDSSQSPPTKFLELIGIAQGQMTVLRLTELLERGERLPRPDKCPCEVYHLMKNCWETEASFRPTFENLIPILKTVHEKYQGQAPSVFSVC
T2 sequence (Q9BYT3 whole entry): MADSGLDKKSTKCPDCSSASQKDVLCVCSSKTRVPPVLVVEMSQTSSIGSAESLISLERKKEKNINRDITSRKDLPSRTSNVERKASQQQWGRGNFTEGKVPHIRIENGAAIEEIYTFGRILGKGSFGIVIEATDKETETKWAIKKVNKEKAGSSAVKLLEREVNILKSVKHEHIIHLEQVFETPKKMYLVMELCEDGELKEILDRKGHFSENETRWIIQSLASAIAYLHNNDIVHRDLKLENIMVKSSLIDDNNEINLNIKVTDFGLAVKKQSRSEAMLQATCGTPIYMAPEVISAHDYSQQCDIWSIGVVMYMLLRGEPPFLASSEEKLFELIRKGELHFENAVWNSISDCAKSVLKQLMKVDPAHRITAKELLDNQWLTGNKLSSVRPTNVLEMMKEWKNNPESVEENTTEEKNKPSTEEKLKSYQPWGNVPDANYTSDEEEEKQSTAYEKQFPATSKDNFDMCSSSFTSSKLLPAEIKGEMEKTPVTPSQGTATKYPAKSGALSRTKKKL

remaining binding at 10 µM ([2]; STK33, 10 µM)	score (%) ([3]; kinase TYK2(Kin.Dom.2), 10 µM)	Compound	remaining binding at 10 µM [1]	remaining binding at 10 µM ([2]; kinase STK33, 10 µM)	score (%) [3, 6]	score (%) ([3]; kinase TYK2(JH2domain-pseudokinase), 10 µM)	score (%) [4]	remaining binding at 10 µM [5]	score (%) ([3]; kinase TYK2(Kin.Dom.1), 10 µM)	score (%) [3]
–	–	CCN1CCN(Cc2ccc(NC(=O)c3ccc(C)c(C#Cc4cccnc4)c3)cc2C(F)(F)F)CC1 [XMD15-44]	0%	14%	4.2%	99%	nb (Hits values higher than 30% were considered negative (no binding: nb))	> 30%	–	–
23%	7%	CCN1CCN(Cc2ccc(NC(=O)c3ccc(C)c(/C=C/c4cnc5[nH]ccc5c4Cl)c3)cc2C(F)(F)F)CC1 [HG-6-63-01, (E)-3-(2-(4-chloro-1H-pyrrolo[2,3-b]pyridin-5-yl)vinyl)-N-(4-((4-ethylpiperazin-1-yl)methyl)-3-(trifluoromethyl)phenyl)-4-methylbenzamide]	5.9%	–	–	–	8.2%	> 30%	nb (Hits values higher than 30% were considered negative (no binding: nb))	–
–	–	CCN1CCN(Cc2ccc(NC(=O)c3ccc(C)c(NC(=O)c4cncc(-c5cccs5)c4)c3)cc2C(F)(F)F)CC1 [ALW-II-41-27]	1.2%	> 30%	9.8%	–	nb (Hits values higher than 30% were considered negative (no binding: nb))	> 30%	–	nb (Hits values higher than 30% were considered negative (no binding: nb))
